The text below walks through data of patent EP0186365A2, “Preparation of alcohols” (UNITED KINGDOM ATOMIC ENERGY AUTHORITY, priority 1984, dated 1986).

Experiment [1] concerns the target T1, Horse liver alcohol dehydrogenase or HLADH (Equus caballus, UniProt P00327).
T1 construct: whether it is derived from yeast (i.e. is a YADH) from horse liver (HLADH), or from another source; from tissue; host or cells: horse liver
Description: Example 4: activity of immobilised HLADH in the reduction of aldehydes (NADH absorbance decrease at 380 nm). The format is biochemical. Particulars: aldehyde as substrate (2mM), NADH (1mM), pH 7.0, 22 °C, initial rate over 2 minutes. As for the experimental part: Horse liver alcohol dehydrogenase or HLADH (50 mg; 1 U/mg) was reacted with swelled CNBr-activated Sepharose 4B (Registered Trade Mark) beads (0.8 g).
The activity of the immobilised enzyme in the reduction of aldehydes to alcohols was determined in coupling buffer (0.1 M; pH 7.0) at 22 (+2)°C as the initial rate of decrease in absorbance at 380 nm over a 2 minute time period using NADH (lmM) and aldehyde (2mM).

Experiment [2] deals with T2, YADH (Saccharomyces cerevisiae, UniProt P00330).
T2 sequence (P00330 1-348): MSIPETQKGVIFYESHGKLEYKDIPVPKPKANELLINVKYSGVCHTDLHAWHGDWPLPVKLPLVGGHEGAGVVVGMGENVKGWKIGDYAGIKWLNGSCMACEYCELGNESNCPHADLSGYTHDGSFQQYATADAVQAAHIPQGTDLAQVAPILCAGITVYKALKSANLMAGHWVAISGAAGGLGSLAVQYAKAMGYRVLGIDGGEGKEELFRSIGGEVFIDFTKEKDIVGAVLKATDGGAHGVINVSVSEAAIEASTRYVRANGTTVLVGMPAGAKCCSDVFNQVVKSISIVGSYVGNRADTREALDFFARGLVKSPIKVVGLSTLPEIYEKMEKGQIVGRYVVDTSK
Description: Inhibition/inactivation of YADH in solution by incubation with aldehyde. The class given is biochemical, yeast. From the text: The enzymatic reduction of aldehydes may, however, present a serious problem due to the aldehyde, whilst being a substrate for the enzyme, being a potent irreversible inhibitor.

In experiment [3] the target is T2, YADH. Description: Example 3 (i): inhibition of immobilised YADH after pre-incubation with aldehyde. The format is biochemical, yeast. Particulars: immobilised enzyme; 2 mM aldehyde, 60 min, 22 °C, then washing; assayed with trans-cinnamaldehyde (5 mM). As for the experimental part:
YADH (15 mg; 200U/mg) was reacted with swelled CNBr-activated Sepharose 4B (Registered Trade Mark) beads (0.4 g; ex Pharmacia) and coupling carried out in sodium phosphate buffer (0.1M; pH 7.0) containing KCl (0.5 M) for 18 hours at 4°C. Approximately 90% of the enzyme was thus immobilised.
(§1) In order to test the inhibition of the immobilised enzyme by aldehyde, the beads (50 - 60 µl) were incubated with trans-cinnamaldehyde ([…]; 10 mM) and a coupling buffer (3.95 ml; pH 7.0). This gave a final aldehyde concentration of 2 mM and a protein concentration of 0.16 mg/ml. The reaction mixture was incubated at 22 (+2)°C for 60 min with continuous gentle agitation. The immobilised enzyme was washed three times in coupling buffer (10 ml) at 22 (+2)C and resuspended in eight times of its original volume in coupling buffer. Enzyme activity was assayed immediately after washing using trans-cinnamaldehyde (5 mM) as assay substrate with a protein concentration of 0.2 mg/ml.

Another experiment concerns the target T3, immobilised HLADH (Equus caballus, UniProt P00327).
T3 construct: whether it is derived from yeast (i.e. is a YADH) from horse liver (HLADH), or from another source; from tissue; host or cells: horse liver
Description: Example 5: inhibition of immobilised HLADH by aldehydes. The format is biochemical, horse. Particulars: (b) immobilised HLADH; assay using the aldehyde used in pre-incubation. How it is done:
as §1
Horse liver alcohol dehydrogenase or HLADH (50 mg; 1 U/mg) was reacted with swelled CNBr-activated Sepharose 4B (Registered Trade Mark) beads (0.8 g). Approximately 90% of the enzyme was thus immobilised.
The inhibition of the immobilised enzyme (prepared as in Example 4) by aldehydes was tested and compared with the soluble enzyme as described in Example 3. The results were as follows:
(a) assaying using trans-cinnamaldehyde following pre-incubation using a different aldehyde
(b) assaying using the aldehyde used in pre-incubation

Experiment [4] has as its target T2, YADH. Description: Example 3 (ii): inhibition of soluble YADH after pre-incubation with aldehyde. The class given is biochemical, yeast. The settings on record: soluble enzyme; 2 mM aldehyde, 60 min, 22 °C, then dialysis; assayed with trans-cinnamaldehyde (5 mM). As for the experimental part: By way of comparison, stock enzyme solution (800 µ1; 0.2 mg protein/ml) was incubated with cinnamaldehyde (200 µ1; 10 mM). This also gave a final aldehyde concentration of 2 mM and a protein concentration of 0.16 mg/ml. The reaction mixture was incubated at 22 (+2)^OC for 60 min with continuous gentle agitation. After incubation, the soluble enzyme was dialysed against coupling buffer (30 ml; 0.lM) at 4°C for 21/2 hours with one change of buffer. Enzyme activity was assayed immediately after dialysis using trans-cinnamaldehyde (5 mM) as assay substrate with a protein concentration of 0.2 mg/ml.

The mark [5] stands for this setting: solution of the enzyme incubated with 5 mM aldehyde.

T1 sequence (P00327 whole entry): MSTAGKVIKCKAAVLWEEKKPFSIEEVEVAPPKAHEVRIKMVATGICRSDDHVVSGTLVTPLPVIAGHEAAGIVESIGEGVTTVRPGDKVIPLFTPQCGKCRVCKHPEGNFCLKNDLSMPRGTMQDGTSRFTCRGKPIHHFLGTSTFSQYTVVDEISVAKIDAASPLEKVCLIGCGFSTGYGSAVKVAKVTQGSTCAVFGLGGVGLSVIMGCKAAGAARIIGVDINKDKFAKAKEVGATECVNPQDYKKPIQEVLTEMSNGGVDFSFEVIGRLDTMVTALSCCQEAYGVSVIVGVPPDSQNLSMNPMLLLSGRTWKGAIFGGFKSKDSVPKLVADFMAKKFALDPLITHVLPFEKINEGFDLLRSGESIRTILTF
T3 sequence (P00327 whole entry): as above

`O=Cc1ccc(O)cc1` [p-hydroxybenzaldehyde]: the activity in experiment [1] is 0.94 micromoles NADH/min/mg protein. For the molecule `OCC=Cc1ccccc1` [cinnamyl alcohol], the inhibitory effect result against YADH [2] (even at 8 mM) is “no inhibitory effect”. For `CC(C)=CCCC(C)=CC=O` [citral], the activity in experiment [1] is listed as 0.91 micromoles NADH/min/mg protein. In general, inhibition refers to how much of the control response was suppressed. A low value points to a response near the control. As for `O=C/C=C/c1ccccc1` [trans-cinnamaldehyde], at 2000 µM the inhibition against YADH [3] was 50%. The activity in experiment [1] is 1.36 micromoles NADH/min/mg protein.

At immobilised HLADH, `CC(C)=CCCC(C)CC=O` (centres unmarked) [citronellal] returned an inhibition at 2000 µM of 11%. Further, the activity in experiment [1] is given as 0.75 micromoles NADH/min/mg protein.

In the case of `O=Cc1ccc2c(c1)OCO2` [piperonaldehyde], in experiment [1], the activity was 1.47 micromoles NADH/min/mg protein. Consider `CC(C)c1ccc(C=O)cc1` [p-cuminaldehyde], for which, in experiment [1], the activity is 0.94 micromoles NADH/min/mg protein. Same read-out and setting: the result for `COc1ccc(C=O)cc1` [p-anisaldehyde] reads 1.55 micromoles NADH/min/mg protein. On to `O=Cc1ccccc1O` [salicylaldehyde], for which the activity in experiment [1] is 0.57 micromoles NADH/min/mg protein. For the molecule `O=CC=Cc1ccccc1` [cinnamaldehyde], at YADH [2] (setting [5]), the “time to 50% inhibition” value amounted to 12 min and the “time to total inhibition” value was “about 30 minutes”. Moreover, the inhibition at 2000 µM at YADH [4] turned out to be 90%.
